tested on: platelet ADP receptors; test: ARB binding assay (platelet ADP receptor binding, [3H]2-MeS-ADP); design: species or system human; details: relative activities of selected compounds in the ARB binding assay
Method: Utilizing the second assay the potency of inhibition of such compounds with respect to [^3H]2-MeS-ADP binding to whole platelets is determined. [^3H]2-MeS-ADP binding experiments are routinely performed with outdated human platelets collected by standard procedures at hospital blood banks. Apyrase-washed outdated platelets are prepared as follows (all steps at room temperature, if not indicated otherwise):
Outdated platelet suspensions are diluted with 1 volume of CGS and platelets pelleted by centrifugation at 1900×g for 45 minutes. Platelet pellets are resuspended at 3–6×10^9 platelets/ml in CGS containing 1 U/ml apyrase (grade V, Sigma, St. Louis, Mo.) and incubated for 15 minutes at 37° C. After centrifugation at 730×g for 20 minutes, pellets are resuspended in Hepes-Tyrode's buffer containing 0.1% BSA (Sigma, St. Louis, Mo.) at a concentration of 6.66×10^8 platelets/ml. Binding experiments are performed after >45 minutes resting of the platelets.
Alternatively, binding experiments are performed with fresh human platelets prepared as described in I.(Inhibition of ADP-Mediated Platelet Aggregation in vitro), except that platelets are resuspended in Hepes-Tyrode's buffer containing 0.1% BSA (Sigma, St. Louis, Mo.) at a concentration of 6.66×10^8 platelets/ml. Very similar results are obtained with fresh and outdated platelets.
A platelet ADP receptor binding assay using the tritiated potent agonist ligand [^3H]2-MeS-ADP (Jantzen, H. M. et al. (1999) Thromb. Hemost. 81:111–117) has been adapted to the 96-well microtiter format. In an assay volume of 0.2 ml Hepes-Tyrode's buffer with 0.1% BSA and 0.6% DMSO, 1×10^8 apyrase-washed platelets are preincubated in 96-well flat bottom microtiter plates for 5 minutes with serial dilutions of test compounds before addition of 1 nM [^3H]2-MeS-ADP ([^3H]2-methylthioadenosine-5′-diphosphate, ammonium salt; specific activity 48–49 Ci/mmole, obtained by custom synthesis from Amersham Life Science, Inc., Arlington Heights, Ill., or NEN Life Science Products, Boston, Mass.). Total binding is determined in the absence of test compounds. Samples for nonspecific binding may contain 10^−5 M unlabelled 2-MeS-ADP (RBI, Natick, Mass.). After incubation for 15 minutes at room temperature, unbound radioligand is separated by rapid filtration and two washes with cold (4–8° C.) Binding Wash Buffer (10 mM Hepes pH 7.4, 138 mM NaCl) using a 96-well cell harvester (Minidisc 96, Skatron Instruments, Sterling, Va.) and 8×12 GF/C glassfiber filtermats (Printed Filtermat A, for 1450 Microbeta, Wallac Inc., Gaithersburg, Md.). The platelet-bound radioactivity on the filtermats is determined in a scintillation counter (Microbeta 1450, Wallac Inc., Gaithersburg, Md.). Specific binding is determined by subtraction of non-specific binding from total binding, and specific binding in the presence of test compounds is expressed as % of specific binding in the absence of test compounds dilutions.

SMILES | Relative Activity
CCc1cc2c(N3CCN(C(=O)CCC(C)C)CC3)ncnc2s1 [Example 17, 1-[4-(6-ethylthiopheno[3,2-e]pyrimidin-4-yl)piperazinyl]-4-methylpentan-1-one] | +++ (<10 micromolar)
O=C(CC(F)(F)F)N1CCN(c2ncnc3sc(-c4ccccc4)cc23)CC1 [Example 111, 3,3,3-trifluoro-1-[4-(6-phenylthiopheno[3,2-e]pyrimidin-4-yl)piperazinyl]propan-1-one] | ++ (10–20 micromolar)
CCc1cc2c(N3CCN(C(=O)/C=C/c4ccsc4)CC3)ncnc2s1 [Example 320, 1-[4-(6-Ethyl-thieno[2,3-d]pyrimidin-4-yl)-piperazin-1-yl]-3-thiophen-3-yl-propenone] | + (>20 micromolar)
CCc1cc2c(N3CCN(C(=O)Cc4ccccc4)CC3)ncnc2s1 [Example 2, 1-[4-(6-ethylthiopheno[3,2-e]pyrimidin-4-yl)piperazinyl]-2-phenylethan-1-one] | +++ (<10 micromolar)
CCc1cc2c(N3CCN(C(=O)CCC(=O)OC)CC3)ncnc2s1 [Example 384, 4-[4-(6-Ethyl-thieno[2,3-d]pyrimidin-4-yl)-piperazin-1-yl]-4-oxo-butyric acid methyl ester] | + (>20 micromolar)
CCc1cc2c(N3CCN(C(=O)c4ccc(-c5ccccc5)cc4)CC3)ncnc2s1 [Example 71, 4-(6-ethylthiopheno[3,2-e]pyrimidin-4-yl)piperazinyl 4-phenylphenyl ketone] | +++ (<10 micromolar)
O=C(Cc1ccccc1)N1CCN(c2ncnc3sc(Cc4ccccc4)cc23)CC1 [Example 112, 2-phenyl-1-{4-[6-benzylthiopheno[3,2-e]pyrimidin-4-yl]piperazinyl} ethan-1-one] | +++ (<10 micromolar)
CCc1cc2c(N3CCN(C(=O)c4snnc4-c4ccccc4)CC3)ncnc2s1 [Example 348, [4-(6-Ethyl-thieno[2,3-d]pyrimidin-4-yl)-piperazin-1-yl]-(4-phenyl-[1,2,3]-thiadiazol-5-yl)-methanone] | + (>20 micromolar)
CCc1cc2c(N3CCN(C(=O)CCCCNC(=O)c4ccccc4)CC3)ncnc2s1 [Example 313, N-{5-[4-(6-Ethyl-thieno[2,3-d]pyrimidin-4-yl)-piperazin-1-yl]-5-oxo-pentyl}-benzamide] | ++ (10–20 micromolar)
CC(C)(C)c1cc2c(N3CCN(C(=O)Cc4ccccc4)CC3)ncnc2s1 [Example 106, 1-{4-[6-(tert-butyl)thiopheno[3,2-e]pyrimidin-4-yl]piperazinyl}-2-phenylethan-1-one] | ++ (10–20 micromolar)
CCc1cc2c(N3CCN(C(=O)Cc4ccccc4)CC3C)ncnc2s1 (centres unmarked) [Example 193, 1-[4-(6-ethylthiopheno[3,2-e]pyrimidin-4-yl)-3-methylpiperazinyl]-2-phenylethan-1-one] | +++ (<10 micromolar)
